{"source": "patent US4906638A", "about": "(priority 1987, dated 1990)", "key": {"[1]": {"experiment": "rotorod-ataxia toxicity test (CNS side effects)", "conditions": "mouse, in vivo", "source_text": "Mice that were unable to maintain equilibrium for one continuous minute, given 3 opportunities were scored as ataxic."}, "[2]": {"test_system": "maximal electroshock seizures (tonic hindlimb extension)", "experiment": "maximal electroshock (MES) procedure for mice, transauricular (Example I)", "format": "in vivo", "conditions": "for % Mice Protected: 15 min before MES", "procedure": "For combination studies two separate injections were administered. […] The absence of tonic hindlimb extension was taken as evidence for seizure protection."}, "[3]": {"test_system": "[^3 H]dextromethorphan receptor", "conditions": "central nervous system site; cited from earlier work"}}, "note": "Entries after “also recorded” stand apart in the source; their conditions may differ."}
{"smiles": "NC(=O)N1c2ccccc2C=Cc2ccccc21", "note": "[carbamazepine, 5-H-dibenzepin-(5)-carboxamide]", "values": [{"measurement": "TD50 at […]", "setting": "[1]", "value": 44.8, "unit": "mg/kg"}, {"measurement": "% Mice Protected", "setting": "[2]; CBM 1 mg/kg alone", "value": 0, "unit": "%"}, {"measurement": "% Mice Protected", "setting": "[2]; CBM 3 mg/kg alone", "value": 0, "unit": "%"}, {"measurement": "% Mice Protected", "setting": "[2]; CBM 6 mg/kg alone", "value": 25, "unit": "%"}, {"measurement": "% Mice Protected", "setting": "[2]; CBM 8 mg/kg alone", "value": 50, "unit": "%"}, {"measurement": "% Mice Protected", "setting": "[2]; CBM 9 mg/kg alone", "value": 75, "unit": "%"}, {"measurement": "% Mice Protected", "setting": "[2]; CBM 12 mg/kg alone", "value": 100, "unit": "%"}, {"measurement": "ED50", "setting": "[2]; CBM alone, 15 min", "value": 7.2, "unit": "mg/kg"}, {"measurement": "effect on [^3 H]dextromethorphan binding / binding to the dextromethorphan site (in words)", "setting": "[3]", "value": "did not inhibit or enhance; also recorded: do not inhibit or enhance binding"}]}
